The test system of experiment [1] is BALB/c B cells (gp41 MPER tetramer binding). The experiment is described as follows: Cold inhibition of APC-labeled gp41 MPER tetramer binding by unlabeled tetramers. In kind it is cell-based, mouse (BALB/c). Particulars: unlabeled competitor tetramer pre-incubated; Fig. 4A,B; average of three experiments (4B). As to the method:
FACS staining of single cell suspensions (≥2×10^6) was conducted using pre-mixed combinations of fluorochrome-labeled Abs and APC-conjugated B cell tetramers at empirically-determined optimal concentrations. All Abs were from BD unless otherwise stated. Primary antibodies used were: PerCP anti-B220, FITC anti-IgD, FITC, PE or PE-Cy7 anti-IgM, PE anti-CD5, FITC anti-CD11b, PE-Cy7 anti-CD19, FITC anti-CD21, PE-Cy7 anti-CD23 (eBiosciences), and PE-Cy7 anti-CD93 (eBiosciences). Other reagents included biotinylated Abs against dump channel markers: Thy1 (Abcam), F4/80 (Abcam), CD11c, Gr-1, TER-119, and NK-1.1, secondary staining SA-Texas Red conjugate; v-amine live/dead violet dye (Molecular Probes), and Fc block (anti-CD16/32).
Staining was conducted at 4°C in several sequential steps in FACS staining buffer (1X PBS with 2% FCS, 0.1% NaN3), washing twice between steps. Cells were first incubated with v-amine live/dead dye for 15 min, then stained with APC-labeled tetramers for 30 min (and in some experiments, cold tetramer was incubated at 10 fold molar excess for 1 h, prior to staining with APC-labeled tetramers). Cells were then stained with Fc block, followed by incubation with combinations of primary Abs, and secondary staining with SA-Texas Red, each for 30 min. Data (≥2.5×10^5 events/sample) were acquired using an LSRII flow cytometer and Cell Quest software (BD Immunocytometry systems). FACS Analysis was performed using FlowJo software (Tree Star). For analysis, cells were gated in the following order: single cells were gated based on fsc height vs. fsc area+ssc height vs. ssc profiles, lymphocytes were gated on fsc and ssc profile, residual dead cells were excluded by negative gating with v-amine live/dead dye, and irrelevant non-B cells were excluded by negative gating with dump markers.

Experiment [2] concerns the target gp41 MPER peptide (nominal 2F5 epitope of the HIV-1 gp41 membrane proximal external region), N-biotinylated (HIV-1). As to the kind of experiment: SPR; monomeric or F(ab)2 IgM fragments injected over biotinylated peptides anchored to a SA-coated sensor chip; BIAcore 3000, BIAevaluation 4.1.

On to “DWEYSLWLSN [dsDNA tetramers, double-stranded DNA (dsDNA) mimic tetramer made from the R4A peptide […], reference compound]”, for which the “inhibition of APC-labeled gp41 MPER tetramer binding (in words)” value in experiment [1] is on record as “minimal competition with gp41 MPER binding”. In turn, “monomeric IgM^a fragment of the purified mouse TNP-KLH-specific IgM^a mAb, BD clone G155-228 (antibody)” registered a Kd in experiment [2] of 276 nM. This lies in the sub-micromolar range.

By Kd is commonly meant the constant that tells how readily two partners part at equilibrium.
